The test deals with MMP 13 (Homo sapiens, UniProt P45452). As to the kind of experiment: MMP 13 inhibition (HTS; method not described). Type of test: biochemical. Particulars: for inhibition at 0.2 µM: read-out: MMP 13 % inhibition at 0.2 µM (HTS); for inhibition at 0.036 µM: read-out: MMP 13 % inhibition at 36 nM (HTS), 36 nM; for inhibition at 3600 µM: read-out: MMP 13 % inhibition at 3.6 mM (HTS).

As usually defined, the inhibition is the relative decrease from the control value, in per cent. Take `CCCCCCCCC(C(=O)NO)[S+]([O-])c1cccc(OC)c1` (centres unmarked) [Example 141, 2-(3-Methoxy-benzenesulfinyl)decanoic acid hydroxamide]: the inhibition at 0.2 µM (0.2 µM, HTS) is 32%.

Consider `CCCCCCC(C(=O)NO)S(=O)(=O)c1cccc(OC)c1` (centres unmarked) [Example 164, 2-(3-Methoxybenzenesulfonyl)-octanoic acid hydroxyamide], for which, under “0.2 µM, HTS”, the inhibition at 0.2 µM turned out to be 74%.

For the compound `CCCCCCC(Sc1nc2ccccc2o1)C(=O)NO` (centres unmarked) [Example 169, 2-(2-Benzooxazol-2-ylsulfanyl)-octanoic acid hydroxyamide], the inhibition at 0.036 µM (HTS) was 28%.

For the compound `CC(=O)Nc1ccc([S+]([O-])C(Cc2ccccc2)C(=O)NO)cc1` (centres unmarked) [Example 129, 2-(4-Acetylamino-benzenesulfinyl)-N-hydroxy-3-phenyl-propionamide], the inhibition at 0.2 µM (0.2 µM, HTS) was found to be 90%.

For the compound `CCCCCCC(C(=O)NO)S(=O)(=O)CCc1cccc[n+]1[O-]` (centres unmarked) [Example 183, 2-[2-(1-Oxy-pyridin-2-yl)-ethanesulfonyl]-octanoic acid hydroxyamide], the inhibition at 0.036 µM (HTS) was -6%.

In the case of `CCCCCCC(C(=O)NO)[S+]([O-])c1ccccn1` (centres unmarked) [Example 178, 2-(2-Pyridine-2-sulfinyl)-octanoic acid hydroxyamide], the inhibition at 3600 µM worked out at 39%. Moreover, for the setting “HTS”, the inhibition at 0.036 µM is -10%.

For the compound `COC(=O)CCC(Sc1ccc(SC)cc1)C(=O)NO` (centres unmarked) [Example 131, 4-Hydroxycarbamoyl-4-(4-methanesulfanyl-phenylsulfanyl)-butyric acid methyl ester], the inhibition at 0.2 µM (0.2 µM, HTS) is 71%.

With `CCCCCCC(C(=O)NO)S(=O)(=O)CC1NC(=O)NC1=O` (centres unmarked) [Example 198, 2-(2,5-Dioxo-imidazolidin-4-ylmethylsulfonyl)-octanoic acid hydroxyamide], the inhibition at 0.036 µM (HTS) was -39%.

`CCCCCCC(C(=O)NO)S(=O)(=O)c1[nH]c2ccccc2[n+]1[O-]` (centres unmarked) [Example 181, 2-(3-Oxy-1H-benzimidazole-2-sulfonyl)-octanoic acid hydroxyamide]: the inhibition at 3600 µM is 62%. Further, the inhibition at 0.036 µM (HTS) amounted to 6%. The inhibition at 360 µM (read-out: MMP 13 % inhibition at 0.36 mM (HTS)) worked out at 35%.

`O=C(CCC(C(=O)NO)[S+]([O-])c1ccc(Br)cc1)NO` (centres unmarked) [Example 135, 4-Hydroxycarbamoyl-4-(4-bromo-benzenesulfinyl)-butyric acid hydroxyamide]: the inhibition at 0.2 µM (0.2 µM, HTS) stood at 79%.

For `CCCCCCC(SCCc1ccccn1)C(=O)NO` (centres unmarked) [Example 173, 2-(2-Pyridin-2-yl-ethylsulfanyl)-octanoic acid hydroxyamide], the inhibition at 0.036 µM (HTS) amounted to 18%.

On to `CCCCCCC(Sc1ccc(OC)c(OC)c1)C(=O)NO` (centres unmarked) [Example 165, 2-(3,4-Dimethoxybenzenesulfanyl)-octanoic acid hydroxyamide], for which the inhibition at 0.2 µM (0.2 µM, HTS) worked out at 71%.

In the case of `O=C(NO)C(Cc1cnc[nH]1)Sc1ccccc1Br` (centres unmarked) [Example 152, 2-(2-bromo-benzenesulfanyl)-N-hydroxy-3-(3H-imidazol-4-yl)-propionamide], the inhibition at 0.2 µM (0.2 µM, HTS) worked out at 9%.

As for `CCC(C(=O)NO)S(=O)(=O)C(C)C(=O)NO` (centres unmarked) [Example 124, (1-Hydroxycarbamoyl-propane-1-sulfonyl)-propionic acid hydroxyamide], the “MMP 13 % inhibition at 0.2 µM (HTS)” value (0.2 µM, HTS) is on record as 0%.

Regarding `CCCCCCCCC(C(=O)NO)[S+]([O-])c1ccc([S+](C)[O-])cc1` (centres unmarked) [Example 144, 2-(4-methanesulfinyl-benzenesulfinyl)decanoic acid hydroxamide], the inhibition at 0.2 µM (0.2 µM, HTS) was 38%.

`CCCCCCC(C(=O)NO)[S+]([O-])CC(=O)Nc1ccc2ccccc2c1` (centres unmarked) [Example 191, 2-(Naphthalen-2-ylcarbamoylmethanesulfinyl)-octanoic acid hydroxyamide]: for the setting “HTS”, the inhibition at 0.036 µM was -45%.

In the case of `CCCCCCC(Sc1ccc(OCc2ccccc2)cc1)C(=O)NO` (centres unmarked) [Example 199, 2-(4-Benzyloxy-phenylsulfanyl)-octanoic acid hydroxyamide], the inhibition at 0.036 µM (HTS) was -10%.

For `CCCCCCC(Sc1nc2ccccc2s1)C(=O)NO` (centres unmarked) [Example 170, 2-(2-Benzothiazol-2-ylsulfanyl)-octanoic acid hydroxyamide], the inhibition at 0.036 µM (HTS) turned out to be 32%.

For the compound `CCCCCCCCC(C(=O)NO)S(=O)(=O)c1ccc(S(C)(=O)=O)cc1` (centres unmarked) [Example 145, 2-(4-methanesulfonyl-benzenesulfonyl)decanoic acid hydroxamide], the inhibition at 0.2 µM (0.2 µM, HTS) was determined as 45%.

For the compound `CCCCCCC(C(=O)NO)S(=O)(=O)c1nccs1` (centres unmarked) [Example 195, 2-(Thiazol-2-ylsulfonyl)-octanoic acid hydroxyamide], where the note is “HTS”, the inhibition at 0.036 µM is -9%.

`O=C(CCC(C(=O)NO)[S+]([O-])c1ccccc1C(F)(F)F)NO` (centres unmarked) [Example 138, 4-Hydroxycarbamoyl-4-(2-trifluoromethyl-benzenesulfinyl)-butyric acid hydroxyamide]: the inhibition at 0.2 µM (0.2 µM, HTS) worked out at 20%.

Consider `CCCCCCC(C(=O)NO)[S+]([O-])c1nc2ccccc2[nH]1` (centres unmarked) [Example 177, 2-(2-Benzimidazol-2-ylsulfinyl)-octanoic acid hydroxyamide], for which the inhibition at 0.036 µM (HTS) was 5%.

For the compound `CCCCCCC(C(=O)NO)S(=O)(=O)c1ccc(OS(=O)(=O)c2ccccc2[N+](=O)[O-])cc1` (centres unmarked) [Example 238, 2-Nitro-benzenesulfonic acid 4-(1-hydroxycarbamoyl-heptylsulfonyl)-hydroxyamide], for the setting “HTS”, the inhibition at 0.036 µM stood at 22%.

Turning to `CCCCCCC(Sc1cccc(OC)c1)C(=O)NO` (centres unmarked) [Example 162, 2-(3-Methoxybenzenesulfanyl)-ocranoic acid hydroxyamide], the inhibition at 0.2 µM (0.2 µM, HTS) came out at 13%.

With `CSc1ccc(SC(COCc2ccccc2)C(=O)NO)cc1` (centres unmarked) [Example 146, 3-benzyloxy-N-hydroxy-2-(4-methanesulfanyl-benzenesulfanyl)-propionamide], the inhibition at 0.2 µM (0.2 µM, HTS) was determined as 68%.

As to `C[S+]([O-])c1ccc([S+]([O-])C(COCc2ccccc2)C(=O)NO)cc1` (centres unmarked) [Example 147, 3-Benzyloxy-N-hydroxy-2-(4-methanesulfinyl-benzenesulfinyl)-propionamide], the inhibition at 0.2 µM (0.2 µM, HTS) stood at 73%.

`N=C(N)NCCCC(Sc1cccc(F)c1)C(=O)NO` (centres unmarked) [Example 155, 2-(3-fluorophenylsulfanyl)-5-guanidino-pentanoic acid hydroxyamide]: where the note is “0.2 µM, HTS”, the inhibition at 0.2 µM turned out to be 31%.

Regarding `N=C(N)NCCCC(C(=O)NO)[S+]([O-])c1ccccc1Br` (centres unmarked) [Example 158, 2-(2-Bromosulfinyl)-5-guanidino-pentanoic acid hydroxyamide], the inhibition at 0.2 µM (0.2 µM, HTS) came out at 33%.

Take `CCCCCCCCC(Sc1cccc(OC)c1)C(=O)NO` (centres unmarked) [Example 140, 2-(3-methoxy-benzenesulfanyl)decanoic acid hydroxamide]: the inhibition at 0.2 µM (0.2 µM, HTS) was 29%.

Turning to `CCCCCCC(Sc1nc2ccccc2[nH]1)C(=O)NO` (centres unmarked) [Example 168, 2-(2-Benzimidazol-2-ylsulfanyl)-octanoic acid hydroxyamide], under “0.2 µM, HTS”, the inhibition at 0.2 µM amounted to 21%.

In the case of `O=C(CCC(C(=O)NO)S(=O)(=O)c1ccccc1C(F)(F)F)NO` (centres unmarked) [Example 139, 4-Hydroxycarbamoyl-4-(2-trifluoromethyl-benzenesulfonyl)-butyric acid hydroxyamide], the inhibition at 0.2 µM (0.2 µM, HTS) was found to be 8%.

Take `CCCCCCC(Sc1ccc(OS(=O)(=O)c2ccccc2)cc1)C(=O)NO` (centres unmarked) [Example 232, Benzenesulfonic acid 4-(1-hydroxycarbamoyl-heptylsulfanyl)-phenyl ester]: the inhibition at 0.036 µM (HTS) was 30%.

The record behind these values is patent EP0970046B1, “N-HYDROXY-2-(ALKYL, ARYL, OR HETEROARYL SULFANYL, SULFINYL OR SULFONYL)-3-SUBSTITUTED ALKYL, ARYL OR HETEROARYLAMIDES AS MATRIX METALLOPROTEINASE INHIBITORS” (Wyeth Holdings Corporation, priority 1997, dated 1998).
